System: 356 CRISPRi constructs in E. coli ΔtolC-pore
Assay: CRISPRi collection fitness screen with sub-inhibitory compound
Type: cell-based
Conditions: for Growth represented as mean colony biomass: 1μg/ml MAC0452936, 6ng/ml LolCDE-in-1, 250 ng/ml Vancomycin, 7 ng/ml CHIR090, n=4; for Growth, mean colony biomass (n=4): + 1μg/ml MAC0452936
Method in brief: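 Mobile CRISPRi collection conjugated into the ΔtolC-pore strain and pinned on agar at 1536 density in technical quadruplicate with a sub-inhibitory MAC-0452936 concentration. No CRISPRi induction; only basal 5–10% knockdown.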

## COc1ccc(C(=O)O/N=C(\c2cccs2)C(C)(C)C)cc1 [MAC0452936]
gRNA accA
  Growth represented as mean colony biomass: 0.9619
gRNA aceF
  Growth, mean colony biomass (n=4): 1.536
gRNA alaS
  Growth, mean colony biomass (n=4): 1.17
gRNA argS
  Growth, mean colony biomass (n=4): 1.078
gRNA asnS
  Growth, mean colony biomass (n=4): 1.097
gRNA bamA
  Growth, mean colony biomass (n=4): 1.082
gRNA bamD
  Growth, mean colony biomass (n=4): 1.114
gRNA bioA
  Growth, mean colony biomass (n=4): 1.093
gRNA can
  Growth, mean colony biomass (n=4): 1.0791
gRNA cca
  Growth represented as mean colony biomass: 0.9631
gRNA coaA
  Growth represented as mean colony biomass: 0.9606
gRNA csrA
  Growth, mean colony biomass (n=4): 1.147
gRNA cydA
  Growth represented as mean colony biomass: 0.9568
gRNA cydX
  Growth represented as mean colony biomass: 0.9584
gRNA dapD
  Growth represented as mean colony biomass: 0.9537
gRNA dapE
  Growth represented as mean colony biomass: 0.9829
gRNA der
  Growth represented as mean colony biomass: 0.8304
gRNA dfp
  Growth represented as mean colony biomass: 0.9766
gRNA dnaC
  Growth, mean colony biomass (n=4): 1.0695
gRNA dnaE
  Growth represented as mean colony biomass: 0.9743
gRNA dnaN
  Growth represented as mean colony biomass: 0.9941
gRNA dnaX
  Growth represented as mean colony biomass: 0.9797
gRNA dut
  Growth, mean colony biomass (n=4): 1.096
gRNA eno
  Growth represented as mean colony biomass: 0.9696
gRNA era
  Growth represented as mean colony biomass: 0.9809
gRNA fabA
  Growth represented as mean colony biomass: 0.9981
gRNA fabG
  Growth represented as mean colony biomass: 0.9894
gRNA fabI
  Growth represented as mean colony biomass: 0.9716
gRNA fdx
  Growth represented as mean colony biomass: 0.9955
gRNA fldA
  Growth represented as mean colony biomass: 0.9924
gRNA folA
  Growth, mean colony biomass (n=4): 1.134
gRNA folB
  Growth represented as mean colony biomass: 0.9792
gRNA folC
  Growth, mean colony biomass (n=4): 1.076
gRNA folE
  Growth represented as mean colony biomass: 0.9726
gRNA folP
  Growth represented as mean colony biomass: 0.9946
gRNA frr
  Growth represented as mean colony biomass: 0.9805
gRNA ftsA
  Growth, mean colony biomass (n=4): 1.121
gRNA gapA
  Growth represented as mean colony biomass: 0.983
gRNA glmS
  Growth, mean colony biomass (n=4): 1.092
gRNA glmU
  Growth represented as mean colony biomass: 0.9808
gRNA gltX
  Growth represented as mean colony biomass: 0.9823
gRNA glyA
  Growth, mean colony biomass (n=4): 1.091
gRNA groS
  Growth represented as mean colony biomass: 0.9881
gRNA grpE
  Growth represented as mean colony biomass: 0.9656
gRNA guaA
  Growth represented as mean colony biomass: 0.9795
gRNA hemD
  Growth, mean colony biomass (n=4): 1.079
gRNA hemG
  Growth represented as mean colony biomass: 0.9986
gRNA hemH
  Growth represented as mean colony biomass: 1.001
gRNA hemL
  Growth represented as mean colony biomass: 0.9838
gRNA higA
  Growth represented as mean colony biomass: 0.9635
gRNA hisS
  Growth represented as mean colony biomass: 0.9859
gRNA holD
  Growth represented as mean colony biomass: 0.9764
gRNA hscA
  Growth represented as mean colony biomass: 0.9953
gRNA infA
  Growth, mean colony biomass (n=4): 1.088
gRNA infC
  Growth represented as mean colony biomass: 0.9986
gRNA iscU
  Growth represented as mean colony biomass: 0.9867
gRNA ispB
  Growth represented as mean colony biomass: 0.9983
gRNA ispF
  Growth represented as mean colony biomass: 0.9875
gRNA leuS
  Growth, mean colony biomass (n=4): 1.417
gRNA lexA
  Growth, mean colony biomass (n=4): 1.542
gRNA lolC
  Growth represented as mean colony biomass: 0.9579
gRNA lptA
  Growth, mean colony biomass (n=4): 1.476
gRNA lptB
  Growth, mean colony biomass (n=4): 1.32
gRNA lptC
  Growth represented as mean colony biomass: 0.9585
gRNA lptE
  Growth represented as mean colony biomass: 0.965
gRNA lptF
  Growth represented as mean colony biomass: 0.9902
gRNA lptG
  Growth represented as mean colony biomass: 0.9845
gRNA lpxC
  Growth represented as mean colony biomass: 0.9609
gRNA lpxD
  Growth represented as mean colony biomass: 0.9569
gRNA mnmA
  Growth, mean colony biomass (n=4): 1.086
gRNA mrdB
  Growth, mean colony biomass (n=4): 1.167
gRNA mreB
  Growth represented as mean colony biomass: 0.9936
gRNA mreC
  Growth represented as mean colony biomass: 0.9829
gRNA msbA
  Growth, mean colony biomass (n=4): 1.264
gRNA mukF
  Growth, mean colony biomass (n=4): 1.116
gRNA murB
  Growth represented as mean colony biomass: 0.9708
gRNA murC
  Growth represented as mean colony biomass: 0.97
gRNA murI
  Growth, mean colony biomass (n=4): 1.3051
gRNA nadK
  Growth, mean colony biomass (n=4): 1.081
gRNA nusB
  Growth represented as mean colony biomass: 0.9578
gRNA plsB
  Growth represented as mean colony biomass: 0.995
gRNA prmC
  Growth, mean colony biomass (n=4): 1.083
gRNA proS
  Growth represented as mean colony biomass: 0.9787
gRNA psd
  Growth, mean colony biomass (n=4): 1.711
gRNA pssA
  Growth, mean colony biomass (n=4): 1.089
gRNA ptsI
  Growth, mean colony biomass (n=4): 1.104
gRNA racR
  Growth represented as mean colony biomass: 0.9926
gRNA rho
  Growth, mean colony biomass (n=4): 1.226
gRNA ribA
  Growth represented as mean colony biomass: 0.9923
gRNA ribC
  Growth represented as mean colony biomass: 0.9978
gRNA ribD
  Growth, mean colony biomass (n=4): 1.096
gRNA ribF
  Growth represented as mean colony biomass: 0.9646
gRNA rimM
  Growth represented as mean colony biomass: 0.9609
gRNA rluD
  Growth represented as mean colony biomass: 0.9905
gRNA rne
  Growth, mean colony biomass (n=4): 1.098
gRNA rpe
  Growth represented as mean colony biomass: 0.9763
gRNA rplA
  Growth, mean colony biomass (n=4): 1.0727
gRNA rplD
  Growth represented as mean colony biomass: 0.8324
gRNA rplE
  Growth represented as mean colony biomass: 0.9904
gRNA rplJ
  Growth represented as mean colony biomass: 0.9775
gRNA rplO
  Growth represented as mean colony biomass: 0.9724
gRNA rplP
  Growth, mean colony biomass (n=4): 1.071
gRNA rplQ
  Growth represented as mean colony biomass: 0.9778
gRNA rplS
  Growth represented as mean colony biomass: 0.9888
gRNA rplV
  Growth, mean colony biomass (n=4): 1.1552
gRNA rplX
  Growth, mean colony biomass (n=4): 1.077
gRNA rplY
  Growth represented as mean colony biomass: 0.9853
gRNA rpmC
  Growth, mean colony biomass (n=4): 1.078
gRNA rpmH
  Growth represented as mean colony biomass: 0.9594
gRNA rpmI
  Growth represented as mean colony biomass: 1.001
gRNA rpoC
  Growth, mean colony biomass (n=4): 1.115
gRNA rpoE
  Growth, mean colony biomass (n=4): 1.071
gRNA rpoH
  Growth represented as mean colony biomass: 0.994
gRNA rpsC
  Growth, mean colony biomass (n=4): 1.101
gRNA rpsD
  Growth, mean colony biomass (n=4): 1.173
gRNA rpsE
  Growth represented as mean colony biomass: 0.8351
gRNA rpsF
  Growth represented as mean colony biomass: 0.9675
gRNA rpsG
  Growth, mean colony biomass (n=4): 1.126
gRNA rpsH
  Growth represented as mean colony biomass: 0.8152
gRNA rpsK
  Growth, mean colony biomass (n=4): 1.169
gRNA rpsL
  Growth, mean colony biomass (n=4): 1.132
gRNA rpsM
  Growth, mean colony biomass (n=4): 1.248
gRNA rpsR
  Growth, mean colony biomass (n=4): 1.124
gRNA rpsT
  Growth, mean colony biomass (n=4): 1.094
gRNA rsgA
  Growth represented as mean colony biomass: 0.8391
gRNA safA
  Growth represented as mean colony biomass: 0.9619
gRNA secA
  Growth, mean colony biomass (n=4): 1.102
gRNA secY
  Growth represented as mean colony biomass: 0.8296
gRNA serS
  Growth represented as mean colony biomass: 0.9537
gRNA ssb
  Growth represented as mean colony biomass: 0.8295
gRNA sucA
  Growth represented as mean colony biomass: 0.8419
gRNA suhB
  Growth, mean colony biomass (n=4): 1.09
gRNA tilS
  Growth represented as mean colony biomass: 0.9915
gRNA tonB
  Growth represented as mean colony biomass: 0.9615
gRNA trmD
  Growth represented as mean colony biomass: 0.9721
gRNA tsaB
  Growth represented as mean colony biomass: 0.9923
gRNA tsaD
  Growth represented as mean colony biomass: 0.966
gRNA tsaE
  Growth, mean colony biomass (n=4): 1.071
gRNA tsf
  Growth represented as mean colony biomass: 0.966
gRNA tusE
  Growth represented as mean colony biomass: 0.9697
gRNA tyrS
  Growth represented as mean colony biomass: 0.9746
gRNA ubiB
  Growth represented as mean colony biomass: 0.9956
gRNA ubiD
  Growth represented as mean colony biomass: 0.9717
gRNA waaA
  Growth, mean colony biomass (n=4): 1.073
gRNA ydaS
  Growth represented as mean colony biomass: 0.9729
gRNA ydcD
  Growth represented as mean colony biomass: 0.9759
gRNA ydhL
  Growth represented as mean colony biomass: 1
gRNA yedN
  Growth, mean colony biomass (n=4): 1.142
gRNA yejM
  Growth represented as mean colony biomass: 0.9938
gRNA yffS
  Growth represented as mean colony biomass: 0.9919
gRNA ygeF
  Growth represented as mean colony biomass: 0.966
gRNA ygeN
  Growth, mean colony biomass (n=4): 1.0865
gRNA yidC
  Growth represented as mean colony biomass: 0.8136
gRNA ymfE
  Growth represented as mean colony biomass: 0.9804
gRNA ymiB
  Growth represented as mean colony biomass: 0.9585
gRNA yqeL
  Growth, mean colony biomass (n=4): 1.316
gRNA yqgF
  Growth represented as mean colony biomass: 0.9701
gRNA zipA
  Growth, mean colony biomass (n=4): 1.803

Source: article PMC11456916, “A screen for cell envelope stress uncovers an inhibitor of prolipoprotein diacylglyceryl transferase, Lgt, in Escherichiacoli” (iScience, 2024)
